Source: PubChem BioAssay (NCI)
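Five concentrations, 48 hours, 96-well plates. At the GI50, growth is halved. TGI: concentration producing complete growth inhibition.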

How the values were obtained:
Assay in all cases: growth of human tumour cells (NCI), 48 h
[1] = test system: UACC-257 melanoma
[2] = test system: UACC-62 melanoma
[3] = test system: SNB-19 CNS
[4] = test system: 786-0 renal
[5] = test system: HOP-18 NSCLC
[6] = test system: K-562 leukemia
[7] = test system: SK-MEL-5 melanoma
[8] = test system: HL-60(TB) leukemia
[9] = test system: M19-MEL melanoma
[10] = test system: HOP-92 NSCLC

| Structure (SMILES) | TGI [1] [µM] | TGI [2] [µM] | TGI [3] [µM] | TGI [4] [µM] | TGI [5] [µM] | TGI [6] [µM] | TGI [7] [µM] | TGI [8] [µM] | TGI [9] [µM] | TGI [10] [µM] | GI50 [1] [nM] | GI50 [2] [µM] | GI50 [3] [µM] | GI50 [4] [nM] | GI50 [6] [nM] | GI50 [7] [nM] | GI50 [8] [nM] | GI50 [10] [nM] |
| --- | --- | --- | --- | --- | --- | --- | --- | --- | --- | --- | --- | --- | --- | --- | --- | --- | --- | --- |
| Cc1ccccc1NC(=O)Cc1nc2ccccc2s1 | 30.8 | 35.7 | > 100 | 31.6 | 17.2 | 38.7 | > 100 | 62 |  |  |  |  |  |  |  |  |  |  |
| O=C(O)c1ccc2c(c1)C(=O)N(c1ccc(S(=O)(=O)c3ccc(N4C(=O)c5ccc(C(=O)O)cc5C4=O)cc3)cc1)C2=O | > 100 | > 100 | > 100 | > 100 |  | > 100 | > 100 | > 100 | > 100 |  |  |  |  |  |  |  |  |  |
| N#C/C(=C\c1cc(O)c(O)c(O)c1)C(N)=O | > 100 | > 100 | > 100 | > 100 |  | > 100 | > 100 | > 81.5 | > 100 | > 100 |  |  |  |  |  |  |  |  |
| CC1OC(n2cc(C(F)(F)F)c(=O)[nH]c2=O)C=CC1=O (centres undefined) | 38.8 | 47.5 | 30.6 | 33.1 |  | > 100 |  | 41.2 | 43.3 | 41 |  |  |  |  |  |  |  |  |
| COC(=O)c1c(O)ccc(O)c1C(C(C)=O)C(C)=O | > 100 | > 100 | > 100 | > 100 |  | > 100 | > 100 | > 100 | > 100 | > 100 |  |  |  |  |  |  |  |  |
| CC12OC(CC(O)C1O)n1c3ccccc3c3c4c(c5c6ccccc6n2c5c31)C(=O)N(CCN1CCOCC1)C4=O (centres undefined) | 7.64 | 1.47 | 13.9 | 5.68 |  | 10.4 | 2.87 | 7.08 |  | 9.4 | 1970 | 0.568 | 1.46 | 1290 | 1250 | 791 | 989 | 2030 |
| CN1CCN(CCCNC(=O)c2c3c(n4ccccc24)C(=O)c2ncccc2C3=O)CC1 | 2.3 | 3 | 6.09 | 22.3 |  | > 32.4 | 1.54 | 5.76 |  | 13.4 | 971 | 0.764 | 1.35 | 1630 | 1390 | 547 | 2230 | 3030 |
| CC(=O)OC1CCC2OOC1O2 (centres undefined) | > 100 | > 100 | > 100 | > 100 |  | > 100 | > 100 | > 100 | > 100 |  |  |  |  |  |  |  |  |  |
| Cc1nc2sc(C(=O)Nc3cccc(Br)c3C)c(N)c2cc1C(O)c1ccccc1 (centres undefined) | 27 | 9.59 | > 100 | 10.1 |  | > 100 | 0.263 | 0.0876 |  | 16.5 | 1460 | 0.0566 | 0.0598 | 60.1 | 35.4 | 46.8 | 30 | 1330 |
| COc1cc2c(cc1OC)C(C(CCCCCC(CCC(C)C)C1NCCc3cc(OC)c(OC)cc31)CCC(C)C)NCC2 (centres undefined) | 3.08 | 2.97 | 2.87 | 3.46 |  | 0.441 | 3.04 | 2.55 |  | 2.46 | 1630 | 1.59 | 1.45 | 1730 | 201 | 1650 | 878 | 808 |
| CC[C@@H](C)/C=C(C)/C=C/C(=O)c1c(O)c(-c2ccc(OC(=O)[C@@]34CC[C@@](C)(C(=O)O3)C4(C)C)cc2)cn(O)c1=O | 36 | 2.7 | > 50 | 4.98 |  | > 50 | 4.63 | 2.4 |  | > 50 | 1800 | 1.16 | 2.66 | 1550 | 1570 | 1400 | 841 | 2840 |
| O=C(Nc1nc(-c2ccc(Cl)cc2)cs1)c1cc(O)c(O)c(O)c1 | 2490 | 958 | > 5000 | 1020 |  | > 5000 | 881 | 907 |  | 1050 | 278000 | 158 | 144 | 218000 | 167000 | 194000 | 176000 | 115000 |
| CCc1nc(C)cn1C(=O)OCc1nc2nc(Cl)nc(N3CCOCC3)c2[nH]1 | 3.26 | 2.75 | 2.84 | 3.29 |  | > 100 | 3.01 | 3.15 |  | 2.41 | 1600 | 1.44 | 1.43 | 1610 | 703 | 1640 | 451 | 880 |
| Cn1ncc(C#N)c1-c1ccc2c(c1)CN([C@H](CN)Cc1cccc(F)c1)C2=O | 66.6 | 22.6 | > 55.3 | 14.6 |  | > 100 | 24.9 | 47.8 |  | 1.67 | 5990 | 3.17 | 1.15 | 145 | 27400 | 12100 | 22100 | 134 |
| C=CCn1c2ccccc2c2c3c(c4c5ccccc5n(CC=C)c4c21)C(=O)N(O)C3=O | 54.6 | 10.5 | > 100 | 40.4 |  | 50 | 4.1 | 4.31 |  | 25.5 | 13500 | 1.74 | 4.18 | 2660 | 3890 | 1790 | 2090 | 7130 |
| C=C1C(=O)O[C@H](c2ccoc2)C[C@@H]1[C@@]1(C)CCCC2(C)C(=O)OCC21 (some centres undefined) | > 100 | > 100 | > 100 | > 100 |  | > 100 | > 100 |  | > 100 |  |  |  |  |  |  |  |  |  |
| O=C(Nc1ccncc1)C(=O)c1cn(S(=O)(=O)c2cccc(Cl)c2)c2ccccc12 | > 100 | > 100 | > 100 | 43.6 |  | > 100 | 39.5 | > 100 |  | 23.1 | 24700 | 5.81 | 27.5 | 7940 | 2500 | 3610 | 3940 | 3310 |
| Nc1ccccc1C#C/C=C\C#Cc1ccccc1C#CCO | 45.2 | 15.3 | > 50 | 17.8 |  | > 50 | 14.1 | > 50 |  | > 50 | 11400 | 5.69 | 23.9 | 6390 | 11100 | 6100 | 8490 | 11900 |
| COc1ccc2c(c1)C(=Nc1ccc(F)c(Cl)c1)c1c-2c(Nc2ccc(F)c(Cl)c2)nc2ccccc12 | > 100 | > 70.5 | > 100 | 42.8 |  | 37 | > 100 | 33.1 |  | > 100 | > 60600 | 22.3 | 44.8 | 14900 | 4190 | > 100000 | 14800 | 33800 |
| Cc1ccc(/C=N/NC(=O)c2ccccc2Oc2ccccc2)o1 | > 100 | > 81.2 | > 100 | > 100 |  | > 100 | 33.3 | > 74.1 |  | > 95.4 | 36500 | 17.3 | 48.4 | > 100000 | 33800 | 16400 | 22800 | 12500 |
| C=C1C(=O)O[C@H]2[C@H]1CC/C(COC(=O)c1cccnc1N)=C\CC[C@@]1(C)O[C@@H]21 | 12.6 | 13.3 | 28.5 | 4.24 |  | 14.1 | 12.5 | 0.749 |  | 2.63 | 2320 | 3.02 | 8.65 | 1700 | 396 | 2900 | 262 | 282 |
| CC1=CC(=O)N(c2cccc3c(N4C(=O)C=C(C)C4=O)cccc23)C1=O | 25 | 20.5 | > 100 | 23.5 |  | 9.45 | 36.3 | 8.8 |  | 21 | 3970 | 7.68 | 53.3 | 7500 | 1900 | 15500 | 2380 | 2500 |
| Cc1sc(C(=O)c2cncnc2N[C@@H]2C[C@H](COS(N)(=O)=O)[C@@H](O)C2)cc1[C@@H]1NCCc2ccc(Cl)cc21 | 20.1 | 21.7 | 28.8 | 28.8 |  | 34.2 | 17.3 | 13.2 |  | 12.9 | 79.3 | 3.75 | 14.8 | 12900 | 4190 | 1940 | 294 | 78.3 |
| COc1cccc(Nc2ncnc3cc(NC(=O)CCl)ccc23)c1 | 3.02 | 2.48 | 3.22 | 3.1 |  | 2 | 2.55 | 3.54 |  | 3.4 | 1410 | 1.13 | 1.5 | 1550 | 343 | 1250 | 1270 | 1700 |
